Key:
[1] = tested on: PCA (Passive Cutaneous Anaphylaxis) reaction; assay: Anti-allergic effect: PCA (Passive Cutaneous Anaphylaxis) reaction in rats; format: in vivo, Wister-strain male rats; details: Rattus norvegicus, oral, 1 hour before antigen challenge, dye leakage at 620 nm
Experimental: PCA (Passive Cutaneous Anaphylaxis) reaction in rats was taken as an index to an anti-allergic effect of the compound of the present invention.
In order to perform sensitization, anti-DNP-Asc (dinitrophenylated Ascaris extracts) serum diluted with saline was injected intradermally at 4 sites on the shaved back of groups of 6 Wister-strain male rats (6 weeks of age). 1 hour after oral administration of the test drug, the mixture of equivalent amount of DNP-Asc (5 mg/ml) and 2% Evans blue were intravenously injected to generate PCA reaction. 30 minutes thereafter, rats were killed by decapitation and exsanguinated. The skin was opened in order to evaluate the leakage of blue dye. The obtained skin was dissolved in 2N potassium hydroxide, then 2N phosphoric acid and acetone were added thereto. The amount of dye was determined by measurement of absorbance at 620 nm after centrifugation.

[2] = Acute toxicity test (oral, LD50); details: mouse, in vivo
Experimental: The test compounds were orally administered to groups of 5 ICR-strain male mice. LD50 value of the compound of the present invention was calculated by the LitchfieldWilcoxon's method based on mortality for 14 days after drug administration.

`Cn1c(=O)c2cccnc2n(C)c1=O` [Compound 2, 1,3-dimethylpyrido[2,3-d]pyrimidine-2,4-dione] gave an inhibition in vivo at 20 mg/kg [1] of 51.2%.

Compound `Cn1c(=O)c2c(N)ccnc2n(C)c1=O` [Compound 4, 5-amino-1,3-dimethylpyrido[2,3-d]pyrimidine-2,4-dione] has an inhibition in vivo at 20 mg/kg [1] of 68.7% and an LD50 at 336 h [2] of 850 mg/kg.

`CCn1c(=O)c2c(N)ccnc2n(CC)c1=O` [Compound 5, 5-amino-1,3-diethylpyrido[2,3-d]pyrimidine-2,4-dione] gave an inhibition in vivo at 20 mg/kg [1] of 79.2% and an LD50 at 336 h [2] greater than 1000 mg/kg.

`CNc1ccnc2c1c(=O)n(C)c(=O)n2C` [Compound 7, 5-methylamino-1,3-dimethylpyrido[2,3-d]pyrimidine-2,4-dione] showed an inhibition in vivo at 20 mg/kg [1] of 73.7% and an LD50 at 336 h [2] of 1050 mg/kg.

In the case of `CCn1c(=O)c2c(NC)ccnc2n(CC)c1=O` [Compound 8, 5-methylamino-1,3-diethylpyrido[2,3-d]pyrimidine-2,4-dione], the inhibition in vivo at 20 mg/kg [1] was 76.4%.

For `C=CCNc1ccnc2c1c(=O)n(C)c(=O)n2C` [Compound 9, 5-allylamino-1,3-dimethylpyrido[2,3-d]pyrimidine-2,4-dione], the inhibition in vivo at 20 mg/kg [1] was 67.9% and the LD50 at 336 h [2] was greater than 1000 mg/kg.

`CC(C)Nc1ccnc2c1c(=O)n(C)c(=O)n2C` [Compound 10, 5-isopropylamino-1,3-dimethylpyrido[2,3-d]pyrimidine-2,4-dione] showed an inhibition in vivo at 20 mg/kg [1] of 86.6% and an LD50 at 336 h [2] of 850 mg/kg.

Compound `Cn1c(=O)c2c(NO)ccnc2n(C)c1=O` [Compound 11, 5-hydroxyamino-1,3-dimethylpyrido[2,3-d]pyrimidine-2,4-dione] has an inhibition in vivo at 20 mg/kg [1] of 74% and an LD50 at 336 h [2] greater than 1000 mg/kg.

With `Cn1c(=O)c2c(O)ccnc2n(C)c1=O` [Compound 14, 5-hydroxy1,3-dimethylpyrido[2,3-d]pyrimidine-2,4-dione] the inhibition in vivo at 20 mg/kg [1] was 49.9%.

Compound `Cn1c(=O)c2ccc(N)nc2n(C)c1=O` [Compound 15, 7-amino-1,3-dimethylpyrido[2,3-d]pyrimidine-2,4-dione] has an inhibition in vivo at 20 mg/kg [1] of 68.7% and an LD50 at 336 h [2] greater than 1200 mg/kg.

Work on `Cn1c(=O)c2cc(N)cnc2n(C)c1=O` [Compound 17, 6-amino-1,3-dimethylpyrido[2,3-d]pyrimidine-2,4-dione] yielded an inhibition in vivo at 20 mg/kg [1] of 56.2%.

Work on `Cn1c(=O)c2[nH]cnc2n(C)c1=O` [Theophylline, reference compound] yielded an inhibition in vivo at 20 mg/kg [1] of 57.9%.

From US4808587A, “5-substituted pyrido[2,3-d]pyrimidine-2,4-diones” (Nippon Zoki Pharmaceutical Co., Ltd., priority 1986, dated 1989)
